Measured values as given in patent US6184396A, “Triazole derivative or salt thereof, preparation process thereof and pharmaceutical containing said compound as an effective ingredient” (SSP Co., Ltd., priority 1998, dated 2001).
In brackets after ≈: the same amount, converted by molar mass.

Columns and labels:
C. albicans ATCC 44859 = assay: Test 1: Action against Candida albicans (in vitro); format: cell-based; conditions: ATCC44859, minimum concentration with apparent suppression of mycelial type growth vs medicament-free control, MEM medium + 10% fetal bovine serum, 37° C., 24 hours, CO2, read-out: Terminal point C. albicans
Description: Test 1: Action against Candida albicans (in vitro)
The resulting mixture was incubated at 37° C. for 24 hours in a CO2 gas incubator. After incubation, a morphological change of C. albicans was observed under an inverted microscope. The minimum medicament concentration permitting the apparent suppression of mycerial type growth compared with that of a medicament-free control was designated as a terminal point (ng/ml).

A. fumigatus IFM 40808 = assay: Test 2: Action against Aspergillus fumigatus (in vitro); format: cell-based; conditions: IFM40808, 0.165M MOPS-containing RPMI 1640, pH 7, almar Blue, 35° C., 48 hours
Description: Test 2: Action against Aspergillus fumigatus (in vitro)
They were incubated at 35° C. for 48 hours.

C. albicans IFM 40009 = assay: Test 3: Action against Candida albicans (in vivo); parameters: species or system C. albicans; mice (ICR (CRJ: CD-1), male, 4-week-old); conditions: mice infected i.v. with C. albicans, 1.25 mg/kg oral, 1 hour after inoculation then once a day for 4 days from 24 hours; for Surviving mice on Day 14, number of surviving mice/total number in group: control 0/11; for Average Survival days: control 4.5 days, *** p < 0.001 relative to control
Description: Test 3: Action against Candida albicans (in vivo)
After 4-week-old, male, ICR (CRJ: CD-1) mice were fasted for 6 hours, C. albicans IFM 40009 was inoculated to the tail vein of each of the mice to give an amount of 3.0×10^6 cells/mouse, whereby infection was caused. A control group consisted of 11 mice, while a medicament-administered group consisted of 5 mice. The medicament dissolved in 20% polyethylene glycol was orally administered 1 hour after the inoculation of the fungus and from 24 hours after the inoculation, it was administered once a day for 4 straight days, each in an amount of 1.25 mg/kg. The survival condition on Day 14 after the infection was compared. In addition, the survival days of the control group and the medicament-administered group were detected by the Kaplan-Meier method (Cox mantel test). Incidentally, Fluconazole was employed as a medicament for comparison.

SMILES | MIC (C. albicans ATCC 44859) | MIC (A. fumigatus IFM 40808) | Surviving mice on Day 14, number of surviving mice/total number in group (C. albicans IFM 40009) | Average Survival days (C. albicans IFM 40009)
OC(Cn1cncn1)(c1ccc(F)cc1)C(F)(F)SC1CC1 (stereo not drawn) [Example 8, 1-(cyclopropylthio)-1,1-difluoro-2-(4-fluorophenyl)-3-(1H-1,2,4-triazol-1-yl)-2-propanol] | 0.0156 µg/mL | 8 µg/mL (≈ 24.3 µM) |  | 
COC(Cn1cncn1)(c1ccc(F)cc1F)C(F)(F)SC1CC1 (stereo not drawn) [Example 10, 1-[3-(cyclopropylthio)-2-(2,4-difluorophenyl)-3,3-difluoro-2-methoxypropyl]-1H-1,2,4-triazole] | 0.0313 µg/mL | 32 µg/mL (≈ 88.6 µM) |  | 
OC(Cn1cncn1)(c1ccc(F)cc1F)C(F)(F)SC1CC1 (stereo not drawn) [Example 7, 1-(cyclopropylthio)-2-(2,4-difluorophenyl)-1,1-difluoro-3-(1H-1,2,4-triazol-1-yl)-2-propanol] | 0.0078 µg/mL | 2 µg/mL (≈ 5.76 µM) |  | 
O=S(=O)(C1CC1)C(F)(F)C(O)(Cn1cncn1)c1ccc(F)cc1F (single isomer, unassigned; (-)) [Example 17(2), (-)-1-(Cyclopropylsulfonyl)-2-(2,4-difluorophenyl)-1,1-difluoro-3-(1H-1,2,4-triazol-1-yl)-2-propanol] | 0.0156 µg/mL | 2 µg/mL (≈ 5.27 µM) |  | 
OC(Cn1cncn1)(Cn1cncn1)c1ccc(F)cc1F [Fluconazole, reference compound] | 0.25 µg/mL | > 128 µg/mL | 1/5 | 11.0 days
COC(Cn1cncn1)(c1ccc(F)cc1F)C(F)(F)S(=O)(=O)C1CC1 (stereo not drawn) [Example 15, 1-[3-(cyclopropylsulfonyl)-2-(2,4-difluorophenyl)-3,3-difluoro-2-methoxypropyl]-1H-1,2,4-triazole] |  |  | 4/5 | 13.4 days
O=S(=O)(C1CC1)C(F)(F)C(O)(Cn1cncn1)c1ccc(F)cc1F (racemic) [Example 12, 1-(cyclopropylsulfonyl)-2-(2,4-difluorophenyl)-1,1-difluoro-3-(1H-1,2,4-triazol-1-yl)-2-propanol] | 0.0313 µg/mL | 8 µg/mL (≈ 21.1 µM) | 4/5 | 14.00 days
